The record followed here is patent US20140066431A1, “Benzoxazepines as Inhibitors of PI3K/mTOR and Methods of Their Use and Manufacture” (Exelixis, Inc., priority 2010, published 2014).

This test has as its target PI3Kα (Homo sapiens, UniProt P42336). Nature of the test: PI3K biochemical assay (ATP consumption, luciferase-luciferin). The following applies: 1.5 nM enzyme, 1 μM ATP, 10 μM PIP2. Here is the method: PI3Kα activity is measured as the percent of ATP consumed following the kinase reaction using luciferase-luciferin-coupled chemiluminescence. Reactions were conducted in 384-well white, medium binding microtiter plates (Greiner). Kinase reactions were initiated by combining test compounds, ATP, substrate (PIP2), and kinase in a 20 μL volume in a buffer solution. The standard PI3Kalpha assay buffer is composed 50 mM Tris, pH 7.5, 1 mM EGTA, 10 mM MgCl2, 1 mM DTT and 0.03% CHAPS. The standard assay concentrations for enzyme, ATP, and substrate are 1.5 nM, 1 μM, and 10 μM, respectively. The reaction mixture was incubated at ambient temperature for approximately 2 h. Following the kinase reaction, a 10 μL aliquot of luciferase-luciferin mix (Promega Kinase-Glo) was added and the chemiluminescence signal measured using a Victor2 plate reader (Perkin Elmer). Total ATP consumption was limited to 40-60% and IC50 values of control compounds correlate well with literature references. Substituting PI3Kα with PI3Kβ, PI3Kγ, or PI3Kδ, the inhibitory activity of the compounds for the other isoforms of I3K were measured.

PI3Kα, sequence (P42336 whole entry): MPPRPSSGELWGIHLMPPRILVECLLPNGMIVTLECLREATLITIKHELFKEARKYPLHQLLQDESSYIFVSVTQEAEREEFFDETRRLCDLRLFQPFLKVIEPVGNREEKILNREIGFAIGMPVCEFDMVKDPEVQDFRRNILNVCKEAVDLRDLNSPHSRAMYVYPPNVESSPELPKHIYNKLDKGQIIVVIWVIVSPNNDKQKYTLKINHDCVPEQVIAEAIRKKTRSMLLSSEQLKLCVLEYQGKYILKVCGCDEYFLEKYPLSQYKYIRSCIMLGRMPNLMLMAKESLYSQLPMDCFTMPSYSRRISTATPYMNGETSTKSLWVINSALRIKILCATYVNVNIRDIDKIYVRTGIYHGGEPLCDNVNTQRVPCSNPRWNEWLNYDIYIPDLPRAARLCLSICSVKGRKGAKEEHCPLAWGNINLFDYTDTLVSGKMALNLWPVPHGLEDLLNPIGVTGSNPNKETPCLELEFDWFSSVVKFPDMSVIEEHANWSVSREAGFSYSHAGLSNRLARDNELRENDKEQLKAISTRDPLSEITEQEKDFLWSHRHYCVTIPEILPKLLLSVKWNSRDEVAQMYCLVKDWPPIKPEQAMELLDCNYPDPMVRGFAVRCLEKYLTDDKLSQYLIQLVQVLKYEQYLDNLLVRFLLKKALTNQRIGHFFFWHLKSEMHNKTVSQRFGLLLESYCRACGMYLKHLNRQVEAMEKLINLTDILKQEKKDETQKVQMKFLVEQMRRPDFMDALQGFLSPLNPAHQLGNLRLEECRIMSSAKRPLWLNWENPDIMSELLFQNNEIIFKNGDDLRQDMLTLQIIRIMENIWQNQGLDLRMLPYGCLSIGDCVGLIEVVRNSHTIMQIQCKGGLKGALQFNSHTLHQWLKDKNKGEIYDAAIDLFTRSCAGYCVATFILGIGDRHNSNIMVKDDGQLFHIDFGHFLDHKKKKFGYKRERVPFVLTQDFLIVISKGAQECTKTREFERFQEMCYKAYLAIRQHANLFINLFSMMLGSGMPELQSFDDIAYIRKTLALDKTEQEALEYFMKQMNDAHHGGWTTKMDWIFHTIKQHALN
PI3Kα, sequence (P27986 whole entry partner): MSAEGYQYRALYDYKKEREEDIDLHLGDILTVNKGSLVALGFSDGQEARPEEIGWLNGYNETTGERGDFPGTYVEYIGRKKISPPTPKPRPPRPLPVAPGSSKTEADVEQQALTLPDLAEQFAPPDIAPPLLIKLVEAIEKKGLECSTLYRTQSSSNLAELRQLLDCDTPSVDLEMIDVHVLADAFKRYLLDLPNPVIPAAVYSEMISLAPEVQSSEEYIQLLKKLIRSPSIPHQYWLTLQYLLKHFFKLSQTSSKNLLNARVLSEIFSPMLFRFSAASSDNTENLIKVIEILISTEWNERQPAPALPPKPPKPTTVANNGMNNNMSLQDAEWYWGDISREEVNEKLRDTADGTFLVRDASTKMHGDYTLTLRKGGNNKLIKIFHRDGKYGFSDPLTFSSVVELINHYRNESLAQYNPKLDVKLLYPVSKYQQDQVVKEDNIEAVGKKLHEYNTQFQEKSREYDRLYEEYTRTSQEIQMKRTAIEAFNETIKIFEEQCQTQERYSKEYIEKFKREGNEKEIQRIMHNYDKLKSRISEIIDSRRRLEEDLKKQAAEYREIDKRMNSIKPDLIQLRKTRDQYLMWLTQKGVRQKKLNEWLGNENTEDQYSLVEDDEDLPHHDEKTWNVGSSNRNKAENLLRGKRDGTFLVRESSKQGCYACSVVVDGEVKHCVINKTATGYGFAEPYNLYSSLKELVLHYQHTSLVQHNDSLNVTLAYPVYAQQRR

Turning to `Cc1nc2cc(-c3ccc4c(c3)CN(C(=O)N3CC[C@@](C)(O)C[C@@H]3c3ccccc3)CCO4)ccc2[nH]1` (racemic) [compound 133, (±)-(2R,4R)-4-methyl-1-{[7-(2-methyl-1H-benzimidazol-5-yl)-2,3-dihydro-1,4-benzoxazepin-4(5H)-yl]carbonyl}-2-phenylpiperidin-4-ol], the “IC50 (PI3Kα biochemical assay)” value is recorded as “not active”.
For the molecule `Cc1nc2ccc(-c3ccc4c(c3)CN(C(=O)N3CCN(C)C(=O)C3)CCO4)cc2[nH]1` [compound 146, 1-methyl-4-{[7-(2-methyl-1H-benzimidazol-6-yl)-2,3-dihydro-1,4-benzoxazepin-4(5H)-yl]carbonyl}piperazin-2-one], the “IC50 (PI3Kα biochemical assay)” value is “not active”.
With `Cc1nc2ccc(-c3ccc4c(c3)CN(C(=O)N3CCC(O)(c5ccc(C(F)(F)F)cc5)CC3)CCO4)cc2[nH]1` [compound 141, 1-{[7-(2-methyl-1H-benzimidazol-6-yl)-2,3-dihydro-1,4-benzoxazepin-4(5H)-yl]carbonyl}-4-[4-(trifluoromethyl)phenyl]piperidin-4-ol], the “IC50 (PI3Kα biochemical assay)” value is on record as “not active”.
Then `Cc1nc2ccc(-c3ccc4c(c3)CN(C(=O)N3CCCC[C@H]3c3ccccc3)CCO4)cc2[nH]1` [compound 65, 7-(2-methyl-1H-benzimidazol-6-yl)-4-{[(2S)-2-phenylpiperidin-1-yl]carbonyl}-2,3,4,5-tetrahydro-1,4-benzoxazepine], with “not active”; and `Cc1nc2ccc(-c3ccc4c(c3)CN(C(=O)N3CCN(c5ccccc5F)CC3)CCO4)cc2[nH]1` [compound 165, 4-{[4-(2-fluorophenyl)piperazin-1-yl]carbonyl}-7-(2-methyl-1H-benzimidazol-6-yl)-2,3,4,5-tetrahydro-1,4-benzoxazepine], with “not active”.
In the case of `Cc1nc2ccc(-c3ccc4c(c3)CN(C(=O)NC3[C@H]5C[C@@H]6C[C@@H](C[C@H]3C6)C5)CCO4)cc2[nH]1` (stereo partly drawn) [compound 149, 7-(2-methyl-1H-benzimidazol-6-yl)-N-[(1r,3r,5R,7R)-tricyclo[3.3.1.1~3,7~]dec-2-yl]-2,3-dihydro-1,4-benzoxazepine-4(5H)-carboxamide], the “IC50 (PI3Kα biochemical assay)” value was “not active”.
With `CC1CCN(C(=O)N2CCOc3ccc(-c4cnc(N)cn4)cc3C2)CC1` [compound 4, 5-{4-[(4-methylpiperidin-1-yl)carbonyl]-2,3,4,5-tetrahydro-1,4-benzoxazepin-7-yl}pyrazin-2-amine] the entry was “not active”; with `CCCCN(Cc1ccccc1)C(=O)N1CCOc2ccc(-c3ccc4nc(C)[nH]c4c3)cc2C1` [compound 173, N-butyl-7-(2-methyl-1H-benzimidazol-6-yl)-N-(phenylmethyl)-2,3-dihydro-1,4-benzoxazepine-4(5H)-carboxamide], “not active”; with `Cc1nc2ccc(-c3ccc4c(c3)CN(C(=O)N3CCN(Cc5c(F)cccc5Cl)CC3)CCO4)cc2[nH]1` [compound 152, 4-({4-[(2-chloro-6-fluoropheny)methyl]piperazin-1-yl}carbonyl)-7-(2-methyl-1H-benzimidazol-6-yl)-2,3,4,5-tetrahydro-1,4-benzoxazepine], “not active”.
Then `Cc1nc2ccc(-c3ccc4c(c3)CN(C(=O)N3[C@@H]5CC[C@H]3C[C@@H](N)C5)CCO4)cc2[nH]1` [compound 77, 8-{[7-(2-methyl-1H-benzimidazol-6-yl)-2,3-dihydro-1,4-benzoxazepin-4(5H)-yl]carbonyl}-8-azabicyclo[3.2.1]octan-3-(endo)-amine], with “not active”; and `Cc1nc2ccc(-c3ccc4c(c3)CN(C(=O)N3CCCCC3c3ccc(F)cc3C)CCO4)cc2[nH]1` (stereo not drawn) [compound 117, 4-{[2-(4-fluoro-2-methylphenyl)piperidin-1-yl]carbonyl}-7-(2-methyl-1H-benzimidazol-6-yl)-2,3,4,5-tetrahydro-1,4-benzoxazepine], with “not active”; and `CC1CCN(C(=O)N2CCOc3ccc(-c4ccc(N)nn4)cc3C2)CC1` [compound 1, 6-{4-[(4-methylpiperidin-1-yl)carbonyl]-2,3,4,5-tetrahydro-1,4-benzoxazepin-7-yl}pyridazin-3-amine], with “not active”.
With `CC1CCN(C(=O)N2CCOc3ccc(-c4cc(N)[nH]n4)cc3C2)CC1` [compound 10, 3-{4-[(4-methylpiperidin-1-yl)carbonyl]-2,3,4,5-tetrahydro-1,4-benzoxazepin-7-yl}-1H-pyrazol-5-amine] the entry was “not active”.
For the molecule `CCC1CC2(CCN(C(=O)N3CCOc4ccc(-c5ccc6nc(C)[nH]c6c5)cc4C3)CC2)CC(=O)N1` (stereo not drawn) [compound 155, 4-ethyl-9-{[7-(2-methyl-1H-benzimidazol-6-yl)-2,3-dihydro-1,4-benzoxazepin-4(5H)-yl]carbonyl}-3,9-diazaspiro[5.5]undecan-2-one], the “IC50 (PI3Kα biochemical assay)” value is recorded as “not active”.
`Cc1nc2ccc(-c3ccc4c(c3)CN(C(=O)N3CCCCC3c3ccccc3C)CCO4)cc2[nH]1` (stereo not drawn) [compound 126, 7-(2-methyl-1H-benzimidazol-6-yl)-4-{[2-(2-methylphenyl)piperidin-1-yl]carbonyl}-2,3,4,5-tetrahydro-1,4-benzoxazepine]: the “IC50 (PI3Kα biochemical assay)” value is given as “not active”.
Consider `Nc1cnc(-c2ccc3c(c2)CN(C(=O)N2CCC(C(F)(F)F)CC2)CCO3)cn1` [compound 6, 5-(4-{[4-(trifluoromethyl)piperidin-1-yl]carbonyl}-2,3,4,5-tetrahydro-1,4-benzoxazepin-7-yl)pyrazin-2-amine], for which the “IC50 (PI3Kα biochemical assay)” value is recorded as “not active”.
With `Cc1nc2ccc(-c3ccc4c(c3)CN(C(=O)N3CCCCC3Cc3ccccc3)CCO4)cc2[nH]1` (stereo not drawn) [compound 104, 7-(2-methyl-1H-benzimidazol-6-yl)-4-{[2-(phenylmethyl)piperidin-1-yl]carbonyl}-2,3,4,5-tetrahydro-1,4-benzoxazepine] the entry was “not active”; with `Cc1nc2ccc(-c3ccc4c(c3)CN(C(=O)N3CCC(Cc5ccccc5)CC3)CCO4)cc2[nH]1` [compound 171], “not active”.
